In article PMC9950073, “Alleviation of arthritis through prevention of neutrophil extracellular traps by an orally available inhibitor of protein arginine deiminase 4” (Scientific Reports, 2023):
“And” between values parts separate entries of the source, which are not always exact repeats. Equal values may be shown once.

Columns and labels:
Rat pharmacokinetics = conditions: in vivo, dose not given
Source text: Supplement 41598_2023_30246_MOESM1_ESM.docx, table 3: Supplementary Table S3. In vivo pharmacokinetic parameters of JBI-589 in mouse and rat | column: Dose; t1/2; Cmax; C0; AUC0-t; AUC0-∞; CL; F

[1] = molecular target: T1, recombinant human PAD4 enzyme (Homo sapiens, UniProt Q9UM07); assay: PAD4 biochemical assay measuring ammonia release; conditions: 10 semi-log concentrations, figure box prints no unit, x axis μM, read-out: IC50, inhibition of PAD4 enzymatic activity
T1 construct: Full-length recombinant human PAD4 used in the assay was produced at Jubilant Biosys Ltd, Bangalore; made in house
Method: This assay relies on the ammonia produced when peptidylarginine deiminase 4 (PAD4) deiminates Nα-Benzoyl-L-arginine ethyl ester (BAEE) (Sigma, Catalog No: B4500), a non-natural substrate. The ammonia reacts with a detector i.e., ortho-phthaladehyde (OPA) (Sigma, Catalog No: P0657) resulting in a fluorescent product that is then analyzed at an excitation wavelength of 410 nm and an emission wavelength of 470 nm[33]. Full-length recombinant human PAD4 used in the assay was produced at Jubilant Biosys Ltd, Bangalore. PAD4 enzyme (125 nM) was diluted in Assay Buffer (100 mM HEPES, 50 mM NaCl, 2 mM DTT, 0.6 mg/ml BSA, pH7) and incubated with different concentrations of JBI-589 for 60 min at room temperature and then the reaction was initiated by the addition of substrate (1.5 mM BAEE (sigma) in 100 mM HEPES, 50 mM NaCl, 500 μM CaCl2, 2 mM DTT, pH7) then incubated with 1.5 mM BAEE substrate (Sigma) for another 60 min. The reaction was then stopped by the addition of detection buffer containing 50 mM EDTA, 2.6 mM ortho-phthalaldehyde and 2 mM DTT and fluorescence was measured. IC50 values were determined by sigmoidal dose–response curve (variable slope) using GraphPad Prism 5 software. […]

Mice PK study = type: in vivo, Balb/c mice
Source text: Institutional Animal Ethical Committee (IAEC) of Jubilant Biosys Ltd (IAEC/JDC/2019/188R (for Mice) nominated by CPCSEA (Committee for the Purpose of Control and Supervision of Experiments on Animals) approved the mice pharmacokinetic experiments. Male Balb/c mice (~ 6–8 weeks old with body weight range of 22–25 g) were procured from Vivo Biotech, Hyderabad, India. Rodent feed (manufactured by Altromin Spezialfutter GmbH & Co. KG., ImSeelenkamp20, D-32791 Lage), and water was provided ad libitum. Intravenous (IV) and oral (PO) pharmacokinetics studies were done at doses of 2 mg/Kg and 10 mg/Kg, respectively at a dose volume of 10 mL/Kg. Sparse sampling was done with three mice at each time point. Blood (~ 100 µL) was collected from retro-orbital plexus at 0.12, 0.25, 0.5, 1, 2, 4, 8 and 24 h for IV and 0.25, 0.5, 1, 2, 4, 8, 10 and 24 h for PO route, in tubes containing K2 and EDTA as anticoagulant. It was centrifuged for 5 min at 10,000 rpm in a refrigerated centrifuge (Biofuge, Heraeus, Germany) maintained at 4 °C for plasma separation. For oral dosing of JBI-589 suspension formulation was prepared using 0.5% Tween-80 and 0.5% methyl cellulose (0.5% in water), while for IV dosing 5% DMSO, 5% Solutol:ethanol (1:1, v/v) and 90% normal saline was used.

human neutrophils = assay: Cell Titer Glo viability assay, neutrophils; type: cell-based; conditions: 24 h, up to 10 µM
Source text: All blood samples from healthy donors who participated in this study were obtained after informed consent in accordance with relevant guidelines and regulations given by the ACE Independent ethics committee for Jubilant Biosys Ltd and Office of Clinical Investigations at Boston Children’s Hospital. The ACE Independent ethics committee, Bangalore, approved the use of human whole blood/PBMC/Enriched Subset in Jubilant Biosys Ltd investigations, Drug Controller General of India (DCGI) Reg No. ECR/141/Indt/KA/2013. Briefly, 10 mL K2EDTA vacutainers were used to collect fresh blood from healthy donors (BD vacutainer, Catalog No: BD 367525). A total of 50 ml of blood was taken from a single, healthy human donor. Neutrophils were isolated from human blood using the EasySep Direct Human Neutrophil Isolation Kit, according to the manufacturer's instructions (Stem Cell Technology, Catalog No: 19666). For investigations conducted at Boston Children’s Hospital, experimental procedure was approved by the Office of Clinical Investigations at Boston Children’s Hospital (protocol number IRB-P00003283). […]
The CellTiter-Glo luminescent cell viability assay was performed on neutrophils/peripheral blood mononuclear cells according to the manufacturer’s instructions (Promega, catalog number: G7570)[35]. […] Luminescence was recorded with Perkin Elmer envision 2103 multilabel reader.

[2] = male, Balb/c, mouse, plasma, 2 mg/kg, IV
[3] = male, Balb/c, mouse, plasma, 10 mg/kg, PO

T1 sequence (Q9UM07 whole entry): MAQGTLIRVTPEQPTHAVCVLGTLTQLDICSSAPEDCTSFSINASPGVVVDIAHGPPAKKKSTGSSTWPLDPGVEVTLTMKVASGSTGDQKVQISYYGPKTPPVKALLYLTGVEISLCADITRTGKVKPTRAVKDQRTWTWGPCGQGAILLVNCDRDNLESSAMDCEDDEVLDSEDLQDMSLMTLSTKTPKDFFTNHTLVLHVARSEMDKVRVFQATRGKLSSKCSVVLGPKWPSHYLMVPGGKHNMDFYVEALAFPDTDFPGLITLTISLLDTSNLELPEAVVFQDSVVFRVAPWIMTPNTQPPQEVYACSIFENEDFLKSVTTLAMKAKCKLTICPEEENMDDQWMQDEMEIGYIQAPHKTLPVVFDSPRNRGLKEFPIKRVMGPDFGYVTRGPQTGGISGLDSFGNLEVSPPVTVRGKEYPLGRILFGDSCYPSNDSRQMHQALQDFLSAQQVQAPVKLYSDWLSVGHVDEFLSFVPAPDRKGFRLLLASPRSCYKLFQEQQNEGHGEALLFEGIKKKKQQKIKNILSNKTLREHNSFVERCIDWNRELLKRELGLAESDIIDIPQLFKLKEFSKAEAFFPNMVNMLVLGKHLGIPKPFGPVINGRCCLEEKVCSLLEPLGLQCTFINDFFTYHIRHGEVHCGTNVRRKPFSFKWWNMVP

Question: What does the source list for Cc1c(-c2cc3ccccc3n2Cc2ccc(F)cc2)nc2cc(C(=O)N3CCC[C@@H](N)C3)ccn12 [JBI-589, (R)-(3-aminopiperidin-1-yl)(2-(1-(4-fluorobenzyl)-1H-indol-2-yl)-3-methylimidazo[1,2-a]pyridin-7-yl)methanone]?
Answer: AUC(0-inf) (Rat pharmacokinetics; 2 mg/Kg, IV): 1390 ng·h/mL; AUC(0-t) (Rat pharmacokinetics; 2 mg/Kg, IV): 1320 ng·h/mL; C0 (Rat pharmacokinetics; 2 mg/Kg, IV): 451 ng/mL; Cmax (Rat pharmacokinetics; 2 mg/Kg, IV): 419 ng/mL; Vd (Rat pharmacokinetics; 2 mg/Kg, IV): 13.2 L/kg; clearance (Rat pharmacokinetics; 2 mg/Kg, IV): 24.3 mL/min/kg; half-life (Rat pharmacokinetics; 2 mg/Kg, IV): 6.32 h; AUC(0-inf) (Rat pharmacokinetics; 10 mg/Kg, PO): 3580 ng·h/mL; AUC(0-t) (Rat pharmacokinetics; 10 mg/Kg, PO): 3390 ng·h/mL; Cmax (Rat pharmacokinetics; 10 mg/Kg, PO): 335 ng/mL; bioavailability (Rat pharmacokinetics; 10 mg/Kg, PO): 51.4%; half-life (Rat pharmacokinetics; 10 mg/Kg, PO): 5.6 h; IC50 [1]: 0.122 µM and 0.123 µM; t1/2 (Mice PK study; 10 mg/kg, PO): 6.3 h; AUC(0-inf) (Mice PK study; [2]): 4380 ng·h/mL; AUC(0-t) (Mice PK study; [2]): 3960 ng·h/mL; C0 (Mice PK study; [2]): 968 ng/mL; Cmax (Mice PK study; [2]): 828 ng/mL; Vd (Mice PK study; [2]): 5.24 L/kg; clearance (Mice PK study; [2]): 7.61 mL/min/kg; half-life (Mice PK study; [2]): 8 h; AUC(0-inf) (Mice PK study; [3]): 13500 ng·h/mL; AUC(0-t) (Mice PK study; [3]): 12500 ng·h/mL; Cmax (Mice PK study; [3]): 874 ng/mL; bioavailability (Mice PK study; [3]): 63%; viability of neutrophils (human neutrophils): minimal or no changes
